Measured values: patent US4775681A, “Method of treating fungal infections with trans-6-[2-substitutedpyrrol-1-yl)alkyl]-4-hydroxypyran-2-ones” (Warner-Lambert Company, priority 1987, dated 1988)
Values after ≈ are worked out from the molar mass of the structure shown. Structures can show the parent of a compound that is named as a salt.

Columns and labels:
Experiment in all cases: Antifungal susceptibility, microbroth dilution MIC
Type in all cases: cell-based
Torulopsis glabrata = conditions: Nakaseomyces glabratus; strain 1581; 24 hours
Description: (§1) The antimicrobial susceptibilities of eleven strains of Candida albicans, two strains of Candida tropicans, and one strain each of Torulopsis glabrata and Cryptococcus neoformans to several representative compounds of the present invention were tested. For comparison, the known antifungal agents amphotericin-B and ketoconazole were also tested. Minimal inhibitory concentrations (MIC's) for each compound were determined using the microbroth dilution technique described by S. Shadomy, et al, "Laboratory Studies with Antifungal Agents: Susceptibility Tests and Bioassays," pp. 991-999 in Manual Clin. Microbiol., 4th Ed., Amer. Soc. For Microbiol., Washington, D.C., 1985. The compounds tested are as follows and the results of the testing appear in the following Table.

Candida albicans = system: Candida albicans
Description: as §1

Candida tropicans = system: Candida tropicans
Description: as §1

Cryptococcus neoformans = conditions: strain 1678, 24 hours
Description: as §1

[1] = ATCC10231, 24 h, strain ATCC 10231
[2] = ATCC13803, strain ATCC 13803, 24 hours

| SMILES | MIC (Torulopsis glabrata) [µg/mL] | MIC (Candida albicans; 24 h, strain 1570) [µg/mL] | MIC (Candida albicans; 24 h, strain 1571) [µg/mL] | MIC (Candida albicans; 24 h, strain 1574) [µg/mL] | MIC (Candida albicans; 24 h, strain 1575) [µg/mL] | MIC (Candida albicans; 24 h, strain 1576) [µg/mL] | MIC (Candida albicans; 24 h, strain 1577) [µg/mL] | MIC (Candida albicans; 24 h, strain 1578) [µg/mL] | MIC (Candida albicans; 24 h, strain 1579) [µg/mL] | MIC (Candida albicans; 24 h, strain B4b) [µg/mL] | MIC (Candida albicans; 24 h, strain M752) [µg/mL] | MIC (Candida albicans; [1]) [µg/mL] | MIC (Candida tropicans; [2]) [µg/mL] | MIC (Candida tropicans; strain 1573, 24 hours) [µg/mL] | MIC (Cryptococcus neoformans) [µg/mL] |
| --- | --- | --- | --- | --- | --- | --- | --- | --- | --- | --- | --- | --- | --- | --- | --- |
| C[C@@H]1[C@H](O)[C@@H](C)/C=C/C=C/C=C/C=C/C=C/C=C/C=C/[C@H](O[C@@H]2O[C@H](C)[C@@H](O)[C@H](N)[C@@H]2O)C[C@@H]2O[C@](O)(C[C@@H](O)C[C@@H](O)[C@H](O)CC[C@@H](O)C[C@@H](O)CC(=O)O[C@H]1C)C[C@H](O)[C@H]2C(=O)O [AMP-B, Amphotericin-B, reference compound] | 8 (≈ 8.66 µM) | 8 (≈ 8.66 µM) | 2 (≈ 2.16 µM) | 4 (≈ 4.33 µM) | 8 (≈ 8.66 µM) | 4 (≈ 4.33 µM) | 8 (≈ 8.66 µM) | 8 (≈ 8.66 µM) | 4 (≈ 4.33 µM) | 4 (≈ 4.33 µM) | 8 (≈ 8.66 µM) | 4 (≈ 4.33 µM) | 8 (≈ 8.66 µM) | 4 (≈ 4.33 µM) | 4 (≈ 4.33 µM) |
| CC(C)c1c(Cl)c(Cl)c(-c2ccc(F)cc2)n1CC[C@@H](O)C[C@@H](O)CC(=O)O (relative stereo) [Compound 3, 3,4-Dichloro-2-(4-fluorophenyl)-β,δ-hydroxy-5-(1-methylethyl)-1H-pyrrole-1-heptanoic acid, monosodium salt] | 128 | 64 | 64 | 64 | 64 | 64 | 32 | 64 | 64 | 32 | 64 | 32 | 128 | 32 | 128 |
| CC(=O)N1CCN(c2ccc(OCC3COC(Cn4ccnc4)(c4ccc(Cl)cc4Cl)O3)cc2)CC1 (stereo not drawn) [Keto, Ketoconazole, reference compound] | > 0.5 | 0.25 (≈ 0.47 µM) | 0.125 (≈ 0.235 µM) | 0.25 (≈ 0.47 µM) | 0.5 (≈ 0.941 µM) | > 0.5 | 0.125 (≈ 0.235 µM) | 0.25 (≈ 0.47 µM) | 0.5 (≈ 0.941 µM) | 0.25 (≈ 0.47 µM) | 0.25 (≈ 0.47 µM) | > 0.5 | 0.5 (≈ 0.941 µM) | > 0.5 | > 0.5 |
| CC(C)c1c(Br)c(Br)c(-c2ccc(F)cc2)n1CC[C@@H](O)C[C@@H](O)CC(=O)O (relative stereo) [Compound 1, 3,4-Dibromo-2-(4-fluorophenyl)-β,δ-dihydroxy-5-(1-methylethyl)-1H-pyrrole-1-heptanoic acid, monosodium salt] | 128 | 16 | 32 | 16 | 32 | 15 | 16 | 16 | 16 | 16 | 32 | 16 | 64 | 16 | 128 |
| CCOC(=O)c1c(Br)c(-c2ccc(F)cc2)n(CC[C@H]2C[C@H](O)CC(=O)O2)c1C(F)(F)F (relative stereo) [Compound 2, trans-4-Bromo-5-(4-fluorophenyl)-1[2-(tetrahydro-4-hydroxy-6-oxo-2H-pyran-2-yl)-ethyl]-2-(trifluoromethyl)-1H-pyrrole-3-carboxylic acid, ethyl ester] | 128 (≈ 245 µM) | 32 (≈ 61.3 µM) | 64 (≈ 123 µM) | 32 (≈ 61.3 µM) | 32 (≈ 61.3 µM) | 32 (≈ 61.3 µM) | 32 (≈ 61.3 µM) | 32 (≈ 61.3 µM) | 32 (≈ 61.3 µM) | 16 (≈ 30.6 µM) | 32 (≈ 61.3 µM) | 16 (≈ 30.6 µM) | 64 (≈ 123 µM) | 16 (≈ 30.6 µM) | 64 (≈ 123 µM) |
